Results reported in patent publication US20250243267A1, “COMBINATION OF A GREMLIN-1 ANTAGONIST WITH A CYTIDINE ANALOGUE OR DEOXYCYTIDINE ANALOGUE” (UCB BIOPHARMA SRL, priority 2022, published 2025).
Where “and” joins values, the source holds several entries; their conditions need not be identical. Identical values can stand only once.

Test system: LSL-KrasG12D/+; LSL-Trp53R172H/+; Pdx1-Cre (KPC) mouse model of pancreatic cancer
Experiment: Survival of KPC mice with pancreatic cancer from start of treatment (Kaplan-Meier, Log-Rank)
Assay type: in vivo
Text: • Test antibody and drug Anti-gremlin-1 antibody-Ab7326 mlgG1-APP.4405.IgG.mFc-Lot number-PB 4682 • Vehicle-Phosphate Buffered Saline pH 7.4 (provided by the Beatson Institute) • Gemcitabine-(provided by the Beatson Institute, purchased from LC Labs, Woburn, MA, USA) in Phosphate Buffered Saline pH 7.4. • Genetically Modified Mice • LSL-Kras^G12D/+; Trp53^R172H/+; Pdx1-Cre (KPC) mice have been described previously (Hingorani et al., 2005). Mice were generated by crossing mice bearing Pdx1-Cre, and conditional LSL-KrasG12D or LSL-Trp53R172H alleles (strains 01XJ6 and 01XL9, Mouse Models of Human Cancer Consortium [MMHCC], NCI-Frederick, Frederick, MD, USA). Mice on a mixed background were bred in-house at the CRUK Beatson Institute and maintained in conventional caging with environmental enrichment, access to standard chow and water ad libitum. Genotyping was performed by Transnetyx (Cordoba, TN, USA). Mice of both sexes were recruited onto study. All animal experiments were performed under a UK Home Office licence and approved by the University of Glasgow Animal Welfare and Ethical Review Board.
Mice were monitored 3 times weekly until a diagnosis of pancreatic cancer was made by abdominal palpation and confirmed by ultrasound imaging. […] Mice were monitored daily and sacrificed when reaching ethical endpoint (symptoms include abdominal distension, cachexia, intermittent hunching or reduced mobility, piloerection, mild diarrhoea, anaemia). […]
Next, the efficacy of gremlin-1 inhibition as a potential therapeutic approach for pancreatic cancer was tested in the KPC model. […] A cohort of KPC mice was established and mice were monitored until they developed pancreatic cancer detectable by palpation.
Mice were monitored at least weekly by palpation until pancreatic tumours were detectable. […] Mice remained on study and were closely monitored until ethical endpoint was reached, at which time they were sacrificed as per institutional guidelines.

Nc1ccn([C@@H]2O[C@H](CO)[C@@H](O)C2(F)F)c(=O)n1 [Gemcitabine, 2′-deoxy-2′,2′-difluorocytidine, reference compound]
survival compared with vehicle controls (KPC mice, result in words): negligible benefit | Median (days) survival (KPC mice, survival from start of treatment, dosing twice weekly (Ab7326 mlgG1 30 mg/kg s.c.; gemcitabine 100 mg/kg i.p.)): 24 days | Days on Rx (individual mice) (one value per KPC mouse, * denotes smaller than average tumour at start of treatment): 3 days and 34 days and 24 days and 44 days and 17 days
